Here are results for five compounds from patent publication US8900549B2, “Compositions and methods for delivering a substance to a biological target” (The General Hospital Corporation, priority 2008, dated 2014).

For assay [1], the system named is PtK2 rat kidney cells. The experiment in a line: Live cell labeling and confocal imaging of trans-cyclooctene taxol with tetrazine probes. The format is cell-based, rat kangaroo. Conditions: for staining of intracellular structures by confocal microscopy: 1 μM trans-cyclooctene taxol 1 hour 37° C., wash, then 1 μM tetrazine probe 20 minutes room temperature. Here is the method:
For live cell studies, PtK2 […] cells were incubated in cell media containing 1 μM trans-cyclooctene taxol for 1 hour at 37° C. After washing with media three times, the cells were exposed to media containing 1 μM tetrazine-BODIPY FL for 20 minutes at room temperature. The cells were then washed and imaged on a confocal microscope. […] Taxol® is known to bind the microtubular networks of cells and there have been several reports of fluorescent taxol derivatives that can be used to image microtubular networks (Evangelio et al., 1998, Cell Motil Cytoskeleton, 39, 73-90; Guy et al., 1996, Chem Biol, 3, 1021-31; Souto et al., 1995, Angew. Chem. Int. Ed., 34, 2710-2712). In addition to tubular structures, the perinuclear region was stained. This staining is due to nonspecific uptake of the taxol analog by intracellular membranes such as the endoplasmic reticulum and Golgi.

Assay [2] concerns trans-cyclooctene bound to antibody. Nature of the assay: Kinetic measurements of tetrazine cycloaddition to surface-absorbed trans-cyclooctene modified antibody. The format is physicochemical. As to conditions: PBS at 37° C.; 375, 750 and 1000 nM tetrazine; slope of pseudo first order rate constants versus concentration. Here is the method: trans-cyclooctene modified antibody was physically absorbed onto polystyrene by immersing the surfaces in a 0.1 mg/mL solution of antibody in PBS for 3 hours. After numerous washes with PBS, the surface was exposed to 750 nM tetrazine VT680 in PBS at 37° C. After 5 minutes, the tetrazine solution was removed and the surface washed 3 times with PBS. The fluorescence due to the VT680 dye was measured on a fluorescence plate reader (Tecan Safire 2) and corrected for background fluorescence. The surface was again exposed to the tetrazine solution and the entire process repeated at 10, 15, 30, and 60 minutes. The fluorescence measurements were plotted versus time, fitted to a first order exponential growth curve and the pseudo first order rate constant determined The entire experiment was repeated using two different concentrations of tetrazine (375 nM and 1000 nM) and the pseudo first order rate constants from all three experiments were plotted versus concentration, fitted to a straight line; the slope of the line was 6000±200 M−1sec−1 and was reported at the second order rate constant for the reaction between tetrazine VT680 and trans-cyclooctene bound to antibody.

The test system of assay [3] is EGFR on A549 cells. Nature of the assay: Pretargeted live cell labeling with trans-cyclooctene cetuximab and tetrazine-VT680, confocal microscopy. The class given is cell-based, human.
Experimental: The human lung adenocarcinoma epithelial cell line A549 was selected for all experiments due to its mid-level over-expression of EGFR. The cell line was maintained in a standard ATCC formulated F-12K media supplemented with 10% fetal bovine serum and 5% penicillin/streptomycin.
Cells were grown on break away glass chamber slides and washed six times after administering either imaging agent. A multichannel upright laser-scanning confocal microscope (FV1000; Olympus) was used to image live cells with a 60× water immersion objective lens. Image collection and fluorophore excitations with lasers at 488 nm (EGFP), 543 nm (AF555), and 633 nm (VT680) were done serially to avoid cross talk between channels. Data were acquired with Fluoview software (version 4.3; Olympus) and image stacks were processed and analyzed with ImageJ software (version 1.41, Bethesda Md.).
Direct labeling of the antibodies with AF555 was monitored in the red channel.
Assay [4] relates to Her2/neu growth factor receptors on SKBR-3 human mammary carcinoma cells. The experiment in a line: Live cell labeling with norbornene-modified trastuzumab and tetrazine-VT680, fluorescence microscopy. The format is cell-based. An excerpt: Norbornene carboxylic acid ((1S,2S,4S)-bicyclo[2.2.1]hept-5-en-2-yl acetic acid) was stirred for three hours with 1.1 equivalents of disuccinimidyl carbonate in acetontrile using 1 equivalent of pyridine as base. After reaction, solvent and base were removed by rotary evaporation and the crude norbornene succinimidyl ester with N-hydroxysuccinimide side product was recovered. Commercially purchased humanized anti-HER2/neu antibody trastuzumab (Genentech, San Francisco, Calif.) in 0.1M sodium bicarbonate buffer (pH 8.2) was incubated for three hours at room temperature with a 5 molar excess of 5-(and-6)-carboxytetramethylrhodamine, succinimidyl ester (Invitrogen) and a 30 molar excess of crude norbornene succinimidyl ester. The antibody was then isolated and washed by centrifuge purification and stored in PBS buffer. Control antibody was modified in an identical manner but excluding the norbornene NHS.
SKBR-3 human mammary carcinoma cell lines were maintained in complete McCoy's medium. Cells were incubated at 37° C. with 200 nM modified trastuzumab for 30 minutes and then washed twice with 10% fetal bovine serum (FBS) in Hanks balanced salt solution (HBSS). Tetrazine labeling was performed by incubating the cells for 30 minutes at 37° C. in 10% FBS/HBSS containing 50 μM of tetrazine-VT680. Cells were then washed twice with 10% FBS/HBSS and imaged with by fluorescence microscopy.

Assay [5] deals with tubulin. The experiment in a line: Tubulin polymerization assay in the absence of GTP (optical density at 350 nm). The format is biochemical. Conditions: tubulin monomer, versus DMSO control. The source says: To test the activity of the trans-cyclooctene taxol analog, we tested for the well known ability of Taxol® to polymerize tubulin in the absence of GTP (Shelanski et al., 1973, Proc Natl Acad Sci USA, 70, 765-8; Schiff and Horwitz, 1981, Biochemistry, 20, 3247-52). Optical density measurements at 350 nm (FIG. 6B) were used to determine the degree of tubulin polymerization after exposure of tubulin monomer to Taxol®, trans-cyclooctene taxol, and a DMSO control. […] Taxol trans-cyclooctene induced tubule bundles could be visualized by subsequent staining with tetrazine fluorophore probes such as tetrazine-BODIPY FL yielding brightly fluorescent tubule structures that could be imaged by fluorescent microscopy (FIG. 6c).

As to “3-(p-Benzylamino)-tetrazine-VT680 Conjugate”, the “staining of intracellular structures by confocal microscopy” value (shortened to “staining of intracellular structures”) is “showed intracellular structures reflecting microtubule networks” in assay [1]; “very little staining and an absence of tubular structures” in assay [1] (listed as sulfonated Vivo-Tag 680 tetrazine). For the same compound, the “second order rate constant” value in assay [2] came out at 6000 ± 200 M⁻¹ s⁻¹. Also, the “colocalization of NIR (VT680) signal with AF555-labeled antibody” value in assay [3] (A549 cells pretargeted with AF555-labeled trans-cyclooctene cetuximab, then tetrazine-VT680) is “excellent colocalization of the AF555 and VT680 signals with little background fluorescence”. Further, the “NIR fluorescence in control experiments” value in assay [3] (unlabeled cetuximab and tetrazine-VT680, or trans-cyclooctene-cetuximab and unlabeled VT680) is reported as “no NIR fluorescence”.
“5-(4-(1,2,4,5-Tetrazin-3-yl)benzylamino)-5-oxopentanoic Acid [Example 3]”: in assay [4] (200 nM norbornene- and rhodamine-modified trastuzumab 30 minutes, then 50 μM tetrazine-VT680 30 minutes 37° C. in 10% FBS/HBSS), the “labeling of cells in rhodamine and NIR fluorescence channels” value is listed as “Significant labeling, which colocalizes”. Also, the “NIR labeling with control antibody” value in assay [4] (control antibody containing rhodamine but not norbornene) is listed as “no NIR labeling”.
In the case of `CC(=O)O[C@H]1C(=O)[C@@]2(C)[C@H]([C@H](OC(=O)c3ccccc3)[C@]3(O)C[C@H](OC(=O)[C@H](O)[C@@H](NC(=O)c4ccccc4)c4ccccc4)C(C)=C1C3(C)C)[C@]1(OC(C)=O)CO[C@@H]1C[C@@H]2O` [Taxol®, paclitaxel, reference compound], in assay [5], the “degree of tubulin polymerization (optical density at 350 nm)” value is “induced polymerization”.
Consider `Cc1cc(C)n2c1C=C1C=CC(CCC(=O)NCc3ccc(-c4nncnn4)cc3)=[N+]1[B-]2(F)F` [tetrazine-BODIPY FL], for which, in assay [1], the “staining of intracellular structures” value is “tubular structures were clearly stained”. For the same compound, the “fluorescent background in control experiments” value in assay [1] (tetrazine-BODIPY FL alone or with unmodified taxol) is “minimal fluorescent background”.
Consider `CC(=O)OC1C(=O)C2(C)C(OC(=O)CCNC(=O)OC3CCC=CCCC3)CC3OCC3(OC(C)=O)C2C(OC(=O)c2ccccc2)C2(O)CC(OC(=O)C(O)C(NC(=O)c3ccccc3)c3ccccc3)C(C)=C1C2(C)C` (stereo not drawn) [trans-cyclooctene taxol], for which, in assay [1], the “staining of intracellular structures” value is “tubular structures were clearly stained”. Further, in assay [5], the “degree of tubulin polymerization (optical density at 350 nm)” value was “induced polymerization”.
